In the test the target is T1, mutant G12C K-RAS (Homo sapiens, UniProt P01116, G12C).
T1 construct: made in house; host or cells: E. coli BL21
Put plainly: covalent adduct formation (CAF) with mutant G12C K-RAS. The class given is binding. Further details: CAF: unit not given here. Particulars: for % CAF @ 10 μM,1 h: Table 6; for % CAF (60 min): Table 1, Pyrimidone Core-Morpholine Unsubstituted; for % CAF (60 min) / CAF: after 60 minutes at 10 micromolar; for CAF: Table 3, Pyridone Core-Morpholine Unsubstituted. The procedure: Embodiments disclosed herein are further illustrated by the following examples in Tables 1-4 and the Examples hereinbelow. The Tables indicate the compound number, structure, the observed mass spectral molecular weight peak, and covalent adduct formation (CAF) with a mutant G12C K-RAS after 60 minutes at a concentration of 10 micromolar.

Each structure is given as a SMILES string.

As to `C=CC(=O)N1C[C@H](C)N(c2nc(=O)n3c4c(c(-c5cccc6ccccc56)c(Cl)cc24)OC[C@@H]3CN2CCN(C)CC2)C[C@H]1C` (atropisomer, axis not shown) [Example 308, (3S,10S)-7-((2S,5R)-4-acryloyl-2,5-dimethylpiperazin-1-yl)-9-chloro-3-((4-methylpiperazin-1-yl)methyl)-10-(naphthalen-1-yl)-2,3-dihydro-5H-[1,4]oxazino[2,3,4-ij]quinazolin-5-one], the “% CAF @ 10 μM,1 h” value (1 h) is 22.8%.

For `C=CC(=O)N1C[C@H](C)N(c2nc(=O)n3c4c(c(-c5ccc(F)cc5F)c(Cl)cc24)OC[C@H]3CCCN(C)CC(F)(F)F)C[C@H]1C` [Example 284, (3R)-7-((2S,5R)-4-acryloyl-2,5-dimethylpiperazin-1-yl)-9-chloro-10-(2,4-difluorophenyl)-3-(3-(methyl(2,2,2-trifluoroethyl)amino)propyl)-2,3-dihydro-5H-[1,4]oxazino[2,3,4-ij]quinazolin-5-one], the “% CAF @ 10 μM,1 h” value (1 h) came to 92.4%.

For `C=CC(=O)N1C[C@H](C)N(c2nc(=O)n3c4c(c(-c5ccc(F)cc5F)c(Cl)cc24)OC[C@H]3CCCN2C3CCC2CN(C)C3)C[C@H]1C` [Example 311, (3R)-7-((2S,5R)-4-acryloyl-2,5-dimethylpiperazin-1-yl)-9-chloro-10-(2,4-difluorophenyl)-3-(3-(3-methyl-3,8-diazabicyclo[3.2.1]octan-8-yl)propyl)-2,3-dihydro-5H-[1,4]oxazino[2,3,4-ij]quinazolin-5-one], the “% CAF @ 10 μM,1 h” value (1 h) came out at 64.1%.

In the case of `C=CC(=O)N1C[C@H](C)N(c2nc(=O)n3c4c(c(-c5ccc(F)cc5F)c(Cl)cc24)OC[C@H]3CO[C@H]2CCN(C)C2)C[C@H]1C` [Example 335, (3R)-7-((2S,5R)-4-acryloyl-2,5-dimethylpiperazin-1-yl)-9-chloro-10-(2,4-difluorophenyl)-3-((((S)-1-methylpyrrolidin-3-yl)oxy)methyl)-2H-[1,4]oxazino[2,3,4-ij]quinazolin-5(3H)-one], the “% CAF @ 10 μM,1 h” value (1 h) was 54.6%.

On to `C#CC(=O)N1C[C@H](C)N(c2nc(=O)n3c4c(c(-c5ccc(F)cc5F)c(Cl)cc24)OCC3)C[C@H]1C` [Example 14], for which the “% CAF (60 min)” value came to 46%.

With `C=CC(=O)N1C[C@H](C)N(c2nc(=O)n3c4c(c(-c5cc(Cl)ccc5F)c(Cl)cc24)OC[C@H]3CN2CCC(F)(F)C2)C[C@H]1C` [Example 206, (3R)-7-((2S,5R)-4-acryloyl-2,5-dimethylpiperazin-1-yl)-9-chloro-10-(5-chloro-2-fluorophenyl)-3-((3,3-difluoropyrrolidin-1-yl)methyl)-2,3-dihydro-5H-[1,4]oxazino[2,3,4-ij]quinazolin-5-one], where the note is “1 h”, the “% CAF @ 10 μM,1 h” value amounted to 10.7%.

`C=CC(=O)N1CCN(c2nc(=O)n3c4c(c(-c5ccc(F)cc5F)c(Cl)cc24)SC[C@H]3CN2CCN(CC(F)F)CC2)[C@@H](C)C1` [Example 70, (3R)-7-((S)-4-acryloyl-2-methylpiperazin-1-yl)-9-chloro-3-((4-(2,2-difluoroethyl)piperazin-1-yl)methyl)-10-(2,4-difluorophenyl)-2,3-dihydro-5H-[1,4]thiazino[2,3,4-ij]quinazolin-5-one]: the “% CAF @ 10 uM, 1 h” value (Table 5, 10 uM, 1 h) is reported as 94%.

On to `C=CC(=O)N1C[C@H](C)N(c2nc(=O)n3c4c(c(-c5ccc(F)cc5F)c(Cl)cc24)OC[C@@H]3CC2CCN(C)CC2)C[C@H]1C` [Example 324, (3S)-7-((2S,5R)-4-acryloyl-2,5-dimethylpiperazin-1-yl)-9-chloro-10-(2,4-difluorophenyl)-3-((1-methylpiperidin-4-yl)methyl)-2H-[1,4]oxazino[2,3,4-ij]quinazolin-5(3H)-one], for which the “% CAF @ 10 μM,1 h” value (1 h) is given as 63.4%.

`C=CC(=O)N1CCN(c2cc(=O)n3c4c(c(-c5c(C)ccc6[nH]nc(C)c56)ccc24)CCC3)CC1` [Example 48, 1-(4-acryloylpiperazin-1-yl)-8-(3,5-dimethyl-1H-indazol-4-yl)-6,7-dihydropyrido[3,2,1-ij]quinolin-3(5H)-one]: the CAF is listed as 1.

Regarding `C=CC(=O)N1C[C@H](C)N(c2nc(=O)n3c4c(c(-c5ccc(F)cc5F)c(Cl)cc24)OC[C@H]3CC2(O)CCN(C)CC2)C[C@H]1C` [Example 293, (3R)-7-((2S,5R)-4-acryloyl-2,5-dimethylpiperazin-1-yl)-9-chloro-10-(2,4-difluorophenyl)-3-((4-hydroxy-1-methylpiperidin-4-yl)methyl)-2H-[1,4]oxazino[2,3,4-ij]quinazolin-5(3H)-one], the “% CAF @ 10 μM,1 h” value (1 h) stood at 82.4%.

For the compound `C=CC(=O)N1CCN(c2nc(=O)n3c4c(c(-c5ccc(F)cc5F)c(Cl)cc24)OCC3)[C@@H](CO)C1` [Example 303, 7-((R)-4-acryloyl-2-(hydroxymethyl)piperazin-1-yl)-9-chloro-10-(2,4-difluorophenyl)-2,3-dihydro-5H-[1,4]oxazino[2,3,4-ij]quinazolin-5-one], under “1 h”, the “% CAF @ 10 μM,1 h” value was 15.4%.

In the case of `C=CC(=O)N1C[C@H](C)N(c2nc(=O)n3c4c(c(-c5ccc(F)cc5F)c(Cl)cc24)OC[C@H]3CCCN2CC[C@H](F)C2)C[C@H]1C` [Example 330, (3R)-7-((2S,5R)-4-acryloyl-2,5-dimethylpiperazin-1-yl)-9-chloro-10-(2,4-difluorophenyl)-3-(3-((S)-3-fluoropyrrolidin-1-yl)propyl)-2,3-dihydro-5H-[1,4]oxazino[2,3,4-ij]quinazolin-5-one], the “% CAF @ 10 μM,1 h” value (1 h) was found to be 91.7%.

As to `C=CC(=O)N1C[C@H](C)N(c2nc(=O)n3c4c(c(-c5ccc(F)cc5F)c(Cl)cc24)OC[C@H]3CN2CCN(C)CC2)C[C@H]1C` [Example 256, (3R)-7-((2S,5R)-4-acryloyl-2,5-dimethylpiperazin-1-yl)-9-chloro-10-(2,4-difluorophenyl)-3-((4-methylpiperazin-1-yl)methyl)-2H-[1,4]oxazino[2,3,4-ij]quinazolin-5(3H)-one], the “% CAF @ 10 μM,1 h” value (1 h) came out at 80.1%.

As for `C=CC(=O)N1C[C@H](C)N(c2nc(=O)n3c4c(c(-c5ccc(F)cc5F)c(Cl)cc24)OC[C@H]3CCCN(C)C2COC2)C[C@H]1C` [Example 327, (3R)-7-((2S,5R)-4-acryloyl-2,5-dimethylpiperazin-1-yl)-9-chloro-10-(2,4-difluorophenyl)-3-(3-(methyl(oxetan-3-yl)amino)propyl)-2,3-dihydro-5H-[1,4]oxazino[2,3,4-ij]quinazolin-5-one], the “% CAF @ 10 μM,1 h” value (1 h) came out at 84.5%.

Turning to `C=CC(=O)N1C[C@H](C)N(c2nc(=O)n3c4c(c(-c5ccc(F)cc5F)c(Cl)cc24)OC[C@@H]3CCCO)C[C@H]1C` [Example 250, (3S)-7-((2S,5R)-4-acryloyl-2,5-dimethylpiperazin-1-yl)-9-chloro-10-(2,4-difluorophenyl)-3-(3-hydroxypropyl)-2,3-dihydro-5H-[1,4]oxazino[2,3,4-ij]quinazolin-5-one], where the note is “1 h”, the “% CAF @ 10 μM,1 h” value was determined as 70.1%.

Consider `C=CC(=O)N1C[C@H](C)N(c2nc(=O)n3c4c(c(-c5ccc(F)cc5F)c(Cl)cc24)OC[C@H]3CCCN2CCS(=O)(=O)CC2)C[C@H]1C` [Example 253, (3R)-7-((2S,5R)-4-acryloyl-2,5-dimethylpiperazin-1-yl)-9-chloro-10-(2,4-difluorophenyl)-3-(3-(1,1-dioxidothiomorpholino)propyl)-2,3-dihydro-5H-[1,4]oxazino[2,3,4-ij]quinazolin-5-one], for which the “% CAF @ 10 μM,1 h” value (1 h) turned out to be 87.6%.

As to `C=CC(=O)N1C[C@H](C)N(c2nc(=O)n3c4c(c(-c5ccc(F)cc5F)c(Cl)cc24)O[C@@H](CCCN2C4CCC2COC4)C3)C[C@H]1C` [Example 262, (2S)-2-(3-(3-oxa-8-azabicyclo[3.2.1]octan-8-yl)propyl)-7-((2S,5R)-4-acryloyl-2,5-dimethylpiperazin-1-yl)-9-chloro-10-(2,4-difluorophenyl)-2,3-dihydro-5H-[1,4]oxazino[2,3,4-ij]quinazolin-5-one], under “1 h”, the “% CAF @ 10 μM,1 h” value was 31.6%.

For the compound `C=CC(=O)N1C[C@H](C)N(c2nc(=O)n3c4c(c(-c5ccc(F)cc5F)c(Cl)cc24)O[C@H](CCCN2CCN(C)CC2)C3)C[C@H]1C` [Example 260, (2R)-7-((2S,5R)-4-acryloyl-2,5-dimethylpiperazin-1-yl)-9-chloro-10-(2,4-difluorophenyl)-2-(3-(4-methylpiperazin-1-yl)propyl)-2,3-dihydro-5H-[1,4]oxazino[2,3,4-ij]quinazolin-5-one], the “% CAF @ 10 μM,1 h” value (1 h) was 48.4%.

For the compound `C=CC(=O)N1C[C@H](C)N(c2nc(=O)n3c4c(c(-c5ccc(F)cc5F)c(Cl)cc24)O[C@@H](CCCO)C3)C[C@H]1C` [Example 247, (2S)-7-((2S,5R)-4-acryloyl-2,5-dimethylpiperazin-1-yl)-9-chloro-10-(2,4-difluorophenyl)-2-(3-hydroxypropyl)-2,3-dihydro-5H-[1,4]oxazino[2,3,4-ij]quinazolin-5-one], the “% CAF @ 10 μM,1 h” value (1 h) is given as 42.2%.

`C=CC(=O)N1CCN(c2cc(=O)n3c4c(c(-c5ccc(F)cc5F)ccc24)CCC3)CC1` [Example 47, 1-(4-acryloylpiperazin-1-yl)-8-(2,4-difluorophenyl)-6,7-dihydropyrido[3,2,1-ij]quinolin-3(5H)-one] showed a CAF of 2.

`C=CC(=O)N1C[C@H](C)N(c2nc(=O)n3c4c(c(-c5cccc6ccccc56)c(Cl)cc24)OC[C@H]3Cn2ccnc2)C[C@H]1C` (atropisomer, axis not shown) [Example 317, (3R,10R)-3-((1H-imidazol-1-yl)methyl)-7-((2S,5R)-4-acryloyl-2,5-dimethylpiperazin-1-yl)-9-chloro-10-(naphthalen-1-yl)-2,3-dihydro-5H-[1,4]oxazino[2,3,4-ij]quinazolin-5-one]: the “% CAF @ 10 μM,1 h” value (1 h) is 72.8%.

Turning to `C=CC(=O)N1C[C@H](C)N(c2nc(=O)n3c4c(c(-c5cccc6ccccc56)ccc24)OCC3)C[C@H]1C` [Example 13, 7-((2S,5R)-4-acryloyl-2,5-dimethylpiperazin-1-yl)-10-(naphthalen-1-yl)-2H-[1,4]oxazino[2,3,4-ij]quinazolin-5(3H)-one], the “% CAF (60 min)” value amounted to 3%.

The record behind these values is US12162893B2 (Erasca, Inc., priority 2020, dated 2024).
